Assay results as given in PubChem BioAssay AID248 (DTP/NCI, 2004).
Where “and” joins values, the source holds several entries; their conditions need not be identical. Equal entries are not always repeated. Inconclusive results and toxic doses are left out.

System: L1210 leukemia ip in BDF1 mice, survival T/C
Experiment: NCI In Vivo Anticancer Drug Screen. Data for tumor model L1210 Leukemia (intraperitoneal) in B6D2F1 (BDF1) mice
Conditions: endpoint: mean survival time, higher = longer survival
How it was run: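 Tumor cells were implanted, animals were treated, and survival was followed. The result divides the treated measurement by the vehicle-control measurement.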

[1] = dose: 100.0 mg/kg/injection, schedule: Q04DX003 (ip), vehicle: saline
[2] = dose: 200.0 mg/kg/injection, schedule: Q01DX009 (ip), vehicle: saline with Tween-80
[3] = dose: 400.0 mg/kg/injection, schedule: Q04DX003 (ip), vehicle: saline
[4] = dose: 100.0 mg/kg/injection, schedule: Q01DX009 (ip), vehicle: saline with Tween-80
[5] = dose: 400.0 mg/kg/injection, schedule: Q01DX009 (ip), vehicle: saline with Tween-80
[6] = dose: 100.0 mg/kg/injection, schedule: Q04DX002 (ip), vehicle: Klucel (hydroxypropylcellulose) (HPC)
[7] = dose: 200.0 mg/kg/injection, schedule: Q04DX002 (ip), vehicle: Klucel (hydroxypropylcellulose) (HPC)
[8] = dose: 400.0 mg/kg/injection, schedule: Q04DX002 (ip), vehicle: Klucel (hydroxypropylcellulose) (HPC)
[9] = dose: 100.0 mg/kg/injection, schedule: Q04DX003 (ip), vehicle: saline with Tween-80
[10] = dose: 200.0 mg/kg/injection, schedule: Q04DX003 (ip), vehicle: saline with Tween-80
[11] = dose: 400.0 mg/kg/injection, schedule: Q04DX003 (ip), vehicle: saline with Tween-80

SMILES: CN(C)N=Nc1ccc(C(=O)O)cc1
- T/C (dose: 25.0 mg/kg/injection, schedule: Q01DX009 (ip), vehicle: saline with Tween-80): 108 % of control
- T/C (dose: 50.0 mg/kg/injection, schedule: Q01DX009 (ip), vehicle: saline with Tween-80): 113 % of control and 120 % of control
- T/C (dose: 59.0 mg/kg/injection, schedule: Q04DX003 (ip), vehicle: saline): 108 % of control
- T/C (dose: 88.0 mg/kg/injection, schedule: Q04DX003 (ip), vehicle: saline): 113 % of control
- T/C [1]: 109 % of control
- T/C (dose: 133.0 mg/kg/injection, schedule: Q04DX003 (ip), vehicle: saline): 119 % of control
- T/C [2]: 117 % of control
- T/C [3]: 105 % of control

SMILES: CC(=O)OC(CC/C(C)=C/COC1CCCCO1)C(C)(C)O (centres undefined)
- T/C (dose: 100.0 mg/kg/injection, schedule: Q01DX001 (ip), vehicle: saline with Tween-80): 102 % of control
- T/C [4]: 95 % of control
- T/C (dose: 200.0 mg/kg/injection, schedule: Q01DX001 (ip), vehicle: saline with Tween-80): 103 % of control
- T/C [2]: 98 % of control
- T/C (dose: 400.0 mg/kg/injection, schedule: Q01DX001 (ip), vehicle: saline with Tween-80): 105 % of control
- T/C [5]: 96 % of control

SMILES: CCCCCCCCCCCCCCCCOS(=O)(=O)O
- T/C (dose: 37.5 mg/kg/injection, schedule: Q04DX003 (ip), vehicle: saline): 103 % of control
- T/C (dose: 75.0 mg/kg/injection, schedule: Q01DX001 (ip), vehicle: saline): 106 % of control
- T/C (dose: 75.0 mg/kg/injection, schedule: Q04DX003 (ip), vehicle: saline): 97 % of control
- T/C (dose: 150.0 mg/kg/injection, schedule: Q01DX001 (ip), vehicle: saline): 90 % of control
- T/C (dose: 150.0 mg/kg/injection, schedule: Q04DX003 (ip), vehicle: saline): 96 % of control

SMILES: CCOC(=O)C1(CCC(C)=O)CCCCC1=O (centres undefined)
- T/C [6]: 97 % of control
- T/C [7]: 103 % of control
- T/C [8]: 100 % of control

SMILES: NC(=O)N/N=C/c1[nH]c(=S)[nH]c(=O)c1Cc1ccccc1
- T/C [9]: 101 % of control
- T/C [10]: 94 % of control
- T/C [11]: 97 % of control

SMILES: NC(CCl)=NCCCCN=C(N)CCl
- T/C (dose: 12.5 mg/kg/injection, schedule: Q01DX009 (ip), vehicle: saline): 108 % of control
- T/C (dose: 12.5 mg/kg/injection, schedule: Q04DX002 (ip), vehicle: saline): 100 % of control
- T/C (dose: 25.0 mg/kg/injection, schedule: Q01DX009 (ip), vehicle: saline): 101 % of control
- T/C (dose: 25.0 mg/kg/injection, schedule: Q04DX002 (ip), vehicle: saline): 124 % of control

SMILES: CC1C=CC2CC(O)C12 (centres undefined)
- T/C [4]: 111 % of control
- T/C [9]: 102 % of control
- T/C [2]: 93 % of control
- T/C [10]: 98 % of control
- T/C [5]: 99 % of control
- T/C [11]: 98 % of control

SMILES: CCC(NC(=O)CN)C(=O)O (centres undefined)
- T/C (dose: 100.0 mg/kg/injection, schedule: Q01DX009 (ip), vehicle: saline): 100 % of control and 107 % of control
- T/C (dose: 100.0 mg/kg/injection, schedule: Q04DX002 (ip), vehicle: saline): 97 % of control and 101 % of control and 91 % of control
- T/C [1]: 93 % of control
- T/C (dose: 200.0 mg/kg/injection, schedule: Q01DX009 (ip), vehicle: saline): 102 % of control and 92 % of control
- T/C (dose: 200.0 mg/kg/injection, schedule: Q04DX002 (ip), vehicle: saline): 97 % of control and 105 % of control
- T/C (dose: 200.0 mg/kg/injection, schedule: Q04DX003 (ip), vehicle: saline): 94 % of control
- T/C (dose: 400.0 mg/kg/injection, schedule: Q01DX009 (ip), vehicle: saline): 102 % of control and 111 % of control
- T/C (dose: 400.0 mg/kg/injection, schedule: Q04DX002 (ip), vehicle: saline): 108 % of control and 100 % of control and 118 % of control
- T/C [3]: 98 % of control

SMILES: NC(c1ccccc1)c1c(O)ccc2ccccc12 (centres undefined)
- T/C (dose: 100.0 mg/kg/injection, schedule: Q01DX009 (ip), vehicle: gum acacia): 96 % of control
- T/C [9]: 101 % of control
- T/C (dose: 200.0 mg/kg/injection, schedule: Q01DX009 (ip), vehicle: gum acacia): 98 % of control
- T/C [10]: 93 % of control
- T/C (dose: 400.0 mg/kg/injection, schedule: Q01DX009 (ip), vehicle: gum acacia): 91 % of control
- T/C [11]: 98 % of control

SMILES: O=C(O)C1C2OC3C(OC(=O)C31)C2Cl (centres undefined)
- T/C [6]: 95 % of control
- T/C [7]: 92 % of control
- T/C [8]: 92 % of control

SMILES: O=C(Nc1ccccc1)c1ccc(C(=O)Nc2ccccc2)cc1
- T/C (dose: 100.0 mg/kg/injection, schedule: Q01DX001 (ip), vehicle: carboxymethylcellulose (CMC)): 86 % of control
- T/C (dose: 100.0 mg/kg/injection, schedule: Q01DX001 (oral), vehicle: carboxymethylcellulose (CMC)): 108 % of control
- T/C (dose: 100.0 mg/kg/injection, schedule: Q01DX009 (ip), vehicle: carboxymethylcellulose (CMC)): 101 % of control
- T/C (dose: 100.0 mg/kg/injection, schedule: Q01DX009 (oral), vehicle: carboxymethylcellulose (CMC)): 103 % of control
- T/C (dose: 200.0 mg/kg/injection, schedule: Q01DX001 (ip), vehicle: carboxymethylcellulose (CMC)): 87 % of control
- T/C (dose: 200.0 mg/kg/injection, schedule: Q01DX001 (oral), vehicle: carboxymethylcellulose (CMC)): 108 % of control
- T/C (dose: 200.0 mg/kg/injection, schedule: Q01DX009 (ip), vehicle: carboxymethylcellulose (CMC)): 100 % of control
- T/C (dose: 200.0 mg/kg/injection, schedule: Q01DX009 (oral), vehicle: carboxymethylcellulose (CMC)): 105 % of control
- T/C (dose: 400.0 mg/kg/injection, schedule: Q01DX001 (ip), vehicle: carboxymethylcellulose (CMC)): 87 % of control
- T/C (dose: 400.0 mg/kg/injection, schedule: Q01DX001 (oral), vehicle: carboxymethylcellulose (CMC)): 104 % of control
- T/C (dose: 400.0 mg/kg/injection, schedule: Q01DX009 (ip), vehicle: carboxymethylcellulose (CMC)): 95 % of control
- T/C (dose: 400.0 mg/kg/injection, schedule: Q01DX009 (oral), vehicle: carboxymethylcellulose (CMC)): 111 % of control
- T/C (dose: 800.0 mg/kg/injection, schedule: Q01DX001 (ip), vehicle: carboxymethylcellulose (CMC)): 92 % of control
- T/C (dose: 800.0 mg/kg/injection, schedule: Q01DX001 (oral), vehicle: carboxymethylcellulose (CMC)): 106 % of control
- T/C (dose: 800.0 mg/kg/injection, schedule: Q01DX009 (ip), vehicle: carboxymethylcellulose (CMC)): 97 % of control

SMILES: COC(=O)C1CCC2(C)CCC(=O)C(C)C2C1 (centres undefined)
- T/C (dose: 100.0 mg/kg/injection, schedule: Q01DX001 (ip), vehicle: Klucel (hydroxypropylcellulose) (HPC)): 101 % of control
- T/C (dose: 100.0 mg/kg/injection, schedule: Q04DX003 (ip), vehicle: Klucel (hydroxypropylcellulose) (HPC)): 104 % of control
- T/C (dose: 200.0 mg/kg/injection, schedule: Q01DX001 (ip), vehicle: Klucel (hydroxypropylcellulose) (HPC)): 104 % of control
- T/C (dose: 200.0 mg/kg/injection, schedule: Q04DX003 (ip), vehicle: Klucel (hydroxypropylcellulose) (HPC)): 106 % of control
- T/C (dose: 400.0 mg/kg/injection, schedule: Q01DX001 (ip), vehicle: Klucel (hydroxypropylcellulose) (HPC)): 92 % of control
- T/C (dose: 400.0 mg/kg/injection, schedule: Q04DX003 (ip), vehicle: Klucel (hydroxypropylcellulose) (HPC)): 104 % of control

SMILES: Clc1ccc(CSSCc2ccc(Cl)cc2Cl)c(Cl)c1
- T/C (dose: 100.0 mg/kg/injection, schedule: Q04DX002 (ip), vehicle: gum acacia): 95 % of control
- T/C (dose: 200.0 mg/kg/injection, schedule: Q04DX002 (ip), vehicle: gum acacia): 116 % of control
- T/C (dose: 400.0 mg/kg/injection, schedule: Q04DX002 (ip), vehicle: gum acacia): 100 % of control

SMILES: COc1cc(C=Nc2ccc3c(c2)ncn3C)ccc1N(CCCl)CCCl
- T/C [6]: 153 % of control

SMILES: c1nc2c([nH]1)CCCCC2
- T/C (dose: 12.5 mg/kg/injection, schedule: Q01DX001 (ip), vehicle: saline with Tween-80): 100 % of control
- T/C (dose: 25.0 mg/kg/injection, schedule: Q01DX001 (ip), vehicle: saline with Tween-80): 97 % of control
- T/C (dose: 25.0 mg/kg/injection, schedule: Q01DX009 (ip), vehicle: other): 104 % of control and 106 % of control
- T/C (dose: 25.0 mg/kg/injection, schedule: Q04DX002 (ip), vehicle: other): 99 % of control and 110 % of control
- T/C (dose: 50.0 mg/kg/injection, schedule: Q01DX001 (ip), vehicle: saline with Tween-80): 100 % of control
- T/C (dose: 50.0 mg/kg/injection, schedule: Q01DX009 (ip), vehicle: other): 101 % of control and 88 % of control
- T/C (dose: 50.0 mg/kg/injection, schedule: Q04DX002 (ip), vehicle: other): 105 % of control and 113 % of control
- T/C (dose: 100.0 mg/kg/injection, schedule: Q04DX002 (ip), vehicle: other): 100 % of control and 103 % of control

SMILES: O=C(CN1C(=O)CCC1=O)Oc1ccc([N+](=O)[O-])cc1
- T/C (dose: 100.0 mg/kg/injection, schedule: Q01DX001 (ip), vehicle: saline): 91 % of control
- T/C (dose: 200.0 mg/kg/injection, schedule: Q01DX001 (ip), vehicle: saline): 98 % of control
- T/C (dose: 400.0 mg/kg/injection, schedule: Q01DX001 (ip), vehicle: saline): 102 % of control
